Results reported in patent publication US20220016101A1 (ACADIA Pharmaceuticals Inc., priority 2018, published 2022).

Tested on: patients with MDD and an inadequate response to an SSRI or SNRI
Assay: Massachusetts General Hospital Sexual Functioning Index (MGH-SFI), Study ACP-103-042
Assay type: in vivo, human
From the text: “Massachusetts General Hospital Sexual Functioning Index (MGH-SFI)” is described, for instance, in Labbate and Lare, 2001, Psychother Psychosom. 70(4):221-225. This is a patient facing questionnaire that quantifies sexual dysfunction into 5 functional domains (“interest in sex,” “sexual arousal,” “ability to achieve orgasm,” “ability to maintain erection” (males only), and “sexual satisfaction”). Patients rate each item using a 6-point scale ranging from 1 (good function) to 6 (poor function). High scores indicate poor sexual functioning. […] The determination of the subject's status and eligibility for randomization in Stage 2 was made in a double-blind manner. […] Sexual functioning was assessed using the Massachusetts General Hospital Sexual Functioning Index or MGH-SFI (Labbate and Lare, 2001, Psychother Psychosom. 70(4):221-225). This is a patient facing questionnaire that quantifies sexual dysfunction into 5 functional domains (“interest in sex,” “sexual arousal,” “ability to achieve orgasm,” “ability to maintain erection” [malesonly], and “sexual satisfaction”). Patients rate each item using a 6-point scale ranging from 1 (good function) to 6 (poor function). The time frame for this scale is the past month. This scale was administered at baseline and Week 5 in both stages of the study. High scores indicate poor sexual functioning. In ACP-103-042 the mean scores for MGH-SFI at Baseline was calculated over all 5 domains for males and the 4 domains for females. For MGH-SFI (follow-up version) at Study Weeks 5 and 10, the mean was calculated in the same way as MGH-SFI at Baseline. […] Tables 10-27 summarize the detailed data of MGH-SFI individual items of the overall study group (Tables 10-15), the subgroup of age of <=50 (Tables 16-21) and the subgroup of age of >50 (Table 21-26). In Tables 9-26, ANCOVA=analysis of covariance; OC=observed cases; LSM=least squares mean; CI=confidence interval; SD=standard deviation; SE=standard error. Stage 1: Baseline=Study Week 0, Week 5=Study Week 5; Stage 2: Baseline=Study Week 5, Week 5=Study Weeks 10. LSM from the stage-specific ANCOVA analysis with the change from baseline as the outcome, treatment group as a factor, and the corresponding Baseline value as a covariate. 2-sided p-value for treatment difference from the stage-specific ANCOVA analysis. An treatment effect size (Cohen's d) is calculated using the formula: Effect Size=Least Square mean difference between PIM and PBO/SD. The corresponding 95% confidence interval for an effect size is calculated based on the theoretical probability distribution of the effect size. […] Tables 10-15 and 28-38 summarize the detailed data of MGH-SFI individual items of the overall study group (Tables 10-15), the female subgroup (Tables 33-37) and the male subgroup (Table 38-43). An treatment effect size (Cohen's d) is calculated using the formula: Effect Size=Least Square mean difference between PIM and PBO/SD. The corresponding 95% confidence interval for an effect size is calculated based on the theoretical probability distribution of the effect size. In Tables 10-15 and 28-38, ANCOVA=analysis of covariance; OC=observed cases; LSM=least squares mean; CI=confidence interval; SD=standard deviation; SE=standard error. Stage 1: Baseline=Study Week 0, Week 5=Study Week 5; Stage 2: Baseline=Study Week 5, Week 5=Study Weeks 10. LSM from the stage-specific ANCOVA analysis with the change from baseline as the outcome, treatment group as a factor, and the corresponding Baseline value as a covariate. 2-sided p-value for treatment difference from the stage-specific ANCOVA analysis. An treatment effect size (Cohen's d) is calculated using the formula: Effect Size=Least Square mean difference between PIM and PBO/SD. The corresponding 95% confidence interval for an effect size is calculated based on the theoretical probability distribution of the effect size.

[1] = Stage 2, Overall Study Group, 34 mg QD + SSRI/SNRI
[2] = Stage 2, Subgroup of <=50 Years
[3] = Stage 2, Subgroup of <=50 Years Old
[4] = Stage 2, Subgroup of <=50 Years Old, 34 mg QD + SSRI/SNRI
[5] = female subgroup, Stage 1 (Study Week 0 to 5), PIM 34 mg
[6] = female subgroup, Stage 1 (Study Week 5), PIM 34 mg
[7] = female subgroup, Stage 1, positive = pimavanserin better than placebo
[8] = female subgroup, Stage 2 (Study Week 5 to 10), PIM 34 mg
[9] = female subgroup, Stage 2 (Study Week 10), PIM 34 mg
[10] = female subgroup, Stage 2, positive = pimavanserin better than placebo

Compound: CC(C)COc1ccc(CNC(=O)N(Cc2ccc(F)cc2)C2CCN(C)CC2)cc1 [pimavanserin, N-(4-Fluorophenylmethyl)-N-(1-methylpiperidin-4-yl)-N′-(4-(2-methylpropyloxy)phenylmethyl)carbamide]
- MGH-SFI 05: Overall Sexual Satisfaction, Effect Size (Cohen's d) (Stage 2, Overall Study Group): 0.404
- MGH-SFI 05: Overall Sexual Satisfaction, Week 5 Median (Stage 2, Overall Study Group): 4.5
- MGH-SFI 06: Overall Improvement Since Last Medication Change, Effect Size (Cohen's d) (Stage 2, Overall Study Group): 0.227
- MGH-SFI 06: Overall Improvement Since Last Medication Change, Week 5 Median (Stage 2, Overall Study Group): 4.0
- MGH-SFI 01: Interest in Sex, Week 5 Mean (SE) [1]: 4.1 (0.28)
- MGH-SFI 02: Ability to Get Sexually Aroused or Excited, Week 5 Mean (SE) [1]: 4.2 (0.27)
- MGH-SFI 03: Ability to Achieve Orgasm, Week 5 Mean (SE) [1]: 4.3 (0.32)
- MGH-SFI 04: (Men) Ability to Get and Maintain an Erection, Week 5 Mean (SE) [1]: 3.1 (0.54)
- MGH-SFI 05: Overall Sexual Satisfaction, Week 5 Mean (SE) [1]: 4.1 (0.33)
- MGH-SFI 06: Overall Improvement Since Last Medication Change, Week 5 Mean (SE) [1]: 3.6 (0.25)
- MGH-SFI 01: Interest in Sex, Change from Baseline to Week 5 Mean (SE) [2]: −0.3 (0.21)
- MGH-SFI 01: Interest in Sex, Change from Baseline to Week 5 Median [2]: 0.0
- MGH-SFI 01: Interest in Sex, Effect Size (Cohen's d) [2]: 0.081
- MGH-SFI 01: Interest in Sex, Week 5 Median [2]: 4.0
- MGH-SFI 02: Ability to Get Sexually Aroused or Excited, Change from Baseline to Week 5 Mean (SE) [3]: −0.3 (0.25)
- MGH-SFI 02: Ability to Get Sexually Aroused or Excited, Change from Baseline to Week 5 Median [3]: −1.0
- MGH-SFI 02: Ability to Get Sexually Aroused or Excited, Effect Size (Cohen's d) [3]: 0.017
- MGH-SFI 02: Ability to Get Sexually Aroused or Excited, Week 5 Median [3]: 4.0
- MGH-SFI 03: Ability to Achieve Orgasm, Change from Baseline to Week 5 Mean (SE) [3]: −0.3 (0.25)
- MGH-SFI 03: Ability to Achieve Orgasm, Change from Baseline to Week 5 Median [3]: 0.0
- MGH-SFI 03: Ability to Achieve Orgasm, Effect Size (Cohen's d) [3]: 0.449
- MGH-SFI 03: Ability to Achieve Orgasm, Week 5 Median [3]: 4.0
- MGH-SFI 02: Ability to Get Sexually Aroused or Excited, Week 5 Mean (SE) [4]: 4.1 (0.33)
- MGH-SFI 03: Ability to Achieve Orgasm, Week 5 Mean (SE) [4]: 4.1 (0.40)
- MGH-SFI 01: Interest in Sex, Week 5 Mean (SE) (Stage 2, Subgroup of <=50 Years, 34 mg QD + SSRI/SNRI): 3.9 (0.36)
- MGH-SFI Items effect sizes, mean change from baseline to Week 5 vs placebo (female patients): > 0.5
- MGH-SFI 01: Interest in Sex, Change from Baseline to Week 5 Mean (SE) [5]: −0.9 (0.21)
- MGH-SFI 01: Interest in Sex, Change from Baseline to Week 5 Median [5]: −1.0
- MGH-SFI 02: Ability to Get Sexually Aroused or Excited, Change from Baseline to Week 5 Mean (SE) [5]: −0.8 (0.17)
- MGH-SFI 02: Ability to Get Sexually Aroused or Excited, Change from Baseline to Week 5 Median [5]: −1.0
- MGH-SFI 03: Ability to Achieve Orgasm, Change from Baseline to Week 5 Mean (SE) [5]: −1.2 (0.27)
- MGH-SFI 03: Ability to Achieve Orgasm, Change from Baseline to Week 5 Median [5]: 0.0
- MGH-SFI 05: Overall Sexual Satisfaction, Change from Baseline to Week 5 Mean (SE) [5]: −0.9 (0.26)
- MGH-SFI 05: Overall Sexual Satisfaction, Change from Baseline to Week 5 Median [5]: 0.0
- MGH-SFI 01: Interest in Sex, Week 5 Mean (SE) [6]: 3.7 (0.29)
- MGH-SFI 01: Interest in Sex, Week 5 Median [6]: 4.0
- MGH-SFI 02: Ability to Get Sexually Aroused or Excited, Week 5 Mean (SE) [6]: 3.7 (0.28)
- MGH-SFI 02: Ability to Get Sexually Aroused or Excited, Week 5 Median [6]: 3.5
- MGH-SFI 03: Ability to Achieve Orgasm, Week 5 Mean (SE) [6]: 3.8 (0.28)
- MGH-SFI 03: Ability to Achieve Orgasm, Week 5 Median [6]: 4.0
- MGH-SFI 05: Overall Sexual Satisfaction, Week 5 Mean (SE) [6]: 3.8 (0.29)
- MGH-SFI 05: Overall Sexual Satisfaction, Week 5 Median [6]: 3.5
- MGH-SFI 06: Overall Improvement Since Last Medication Change, Week 5 Mean (SE) [6]: 3.2 (0.17)
- MGH-SFI 06: Overall Improvement Since Last Medication Change, Week 5 Median [6]: 4.0
- MGH-SFI 01: Interest in Sex, Effect Size (Cohen's d) [7]: 0.561
- MGH-SFI 02: Ability to Get Sexually Aroused or Excited, Effect Size (Cohen's d) [7]: 0.616
- MGH-SFI 03: Ability to Achieve Orgasm, Effect Size (Cohen's d) [7]: 0.749
- MGH-SFI 05: Overall Sexual Satisfaction, Effect Size (Cohen's d) [7]: 0.627
- MGH-SFI 06: Overall Improvement Since Last Medication Change, Effect Size (Cohen's d) [7]: 0.634
- MGH-SFI 01: Interest in Sex, Change from Baseline to Week 5 Mean (SE) [8]: −0.3 (0.17)
- MGH-SFI 01: Interest in Sex, Change from Baseline to Week 5 Median [8]: 0.0
- MGH-SFI 02: Ability to Get Sexually Aroused or Excited, Change from Baseline to Week 5 Mean (SE) [8]: −0.3 (0.20)
- MGH-SFI 02: Ability to Get Sexually Aroused or Excited, Change from Baseline to Week 5 Median [8]: 0.0
- MGH-SFI 03: Ability to Achieve Orgasm, Change from Baseline to Week 5 Mean (SE) [8]: −0.3 (0.20)
- MGH-SFI 03: Ability to Achieve Orgasm, Change from Baseline to Week 5 Median [8]: 0.0
- MGH-SFI 05: Overall Sexual Satisfaction, Change from Baseline to Week 5 Mean (SE) [8]: −0.4 (0.26)
- MGH-SFI 05: Overall Sexual Satisfaction, Change from Baseline to Week 5 Median [8]: 0.0
- MGH-SFI 01: Interest in Sex, Week 5 Mean (SE) [9]: 4.4 (0.34)
- MGH-SFI 01: Interest in Sex, Week 5 Median [9]: 5.0
- MGH-SFI 02: Ability to Get Sexually Aroused or Excited, Week 5 Mean (SE) [9]: 4.5 (0.32)
- MGH-SFI 02: Ability to Get Sexually Aroused or Excited, Week 5 Median [9]: 5.0
- MGH-SFI 03: Ability to Achieve Orgasm, Week 5 Mean (SE) [9]: 4.6 (0.38)
- MGH-SFI 03: Ability to Achieve Orgasm, Week 5 Median [9]: 5.0
- MGH-SFI 05: Overall Sexual Satisfaction, Week 5 Mean (SE) [9]: 4.6 (0.38)
- MGH-SFI 05: Overall Sexual Satisfaction, Week 5 Median [9]: 5.0
- MGH-SFI 06: Overall Improvement Since Last Medication Change, Week 5 Mean (SE) [9]: 3.6 (0.29)
- MGH-SFI 06: Overall Improvement Since Last Medication Change, Week 5 Median [9]: 4.0
- MGH-SFI 01: Interest in Sex, Effect Size (Cohen's d) [10]: 0.073
- MGH-SFI 02: Ability to Get Sexually Aroused or Excited, Effect Size (Cohen's d) [10]: −0.064
- MGH-SFI 03: Ability to Achieve Orgasm, Effect Size (Cohen's d) [10]: 0.132
